Laboratory results as given in patent US7261880B2, “Methods of treating Syndrome X with aliphatic polyamines” (priority 2001, dated 2007).
Read-outs that look alike come from different tables or passages of the source. Marks after values point to notes of the source that are not given here.

Tests used:
[1] = test system: patients with primary hypercholesterolemia; details: 4 weeks
[2] = test system: patients with primary hypercholesterolemia; details: Lovastatin 10 mg/day, 4 weeks
[3] = test system: patients with primary hypercholesterolemia; experiment: Simvastatin Trial (6-week), colesevelam in combination with simvastatin; type: in vivo, human; details: 6 weeks

SMILES: CC(C)c1c(C(=O)Nc2ccccc2)c(-c2ccccc2)c(-c2ccc(F)cc2)n1CC[C@@H](O)C[C@@H](O)CC(=O)O [Atorvastatin, atorvastatin]
- Apo B mean percentage change ([1]; Atorvastatin 10 mg/day): −32* %
- HDL-C median percentage change ([1]; Atorvastatin 10 mg/day): +8%
- LDL-C mean percentage change ([1]; Atorvastatin 10 mg/day): −38* %
- TG median percentage change ([1]; Atorvastatin 10 mg/day): −24* %
- Total-C mean percentage change ([1]; Atorvastatin 10 mg/day): −27* %
- Apo B mean percentage change ([1]; Atorvastatin 80 mg/day): −46* %
- HDL-C median percentage change ([1]; Atorvastatin 80 mg/day): +6%
- LDL-C mean percentage change ([1]; Atorvastatin 80 mg/day): −53* %
- TG median percentage change ([1]; Atorvastatin 80 mg/day): −33* %
- Total-C mean percentage change ([1]; Atorvastatin 80 mg/day): −39* %

SMILES: CC[C@H](C)C(=O)O[C@H]1C[C@@H](C)C=C2C=C[C@H](C)[C@H](CC[C@@H]3C[C@@H](O)CC(=O)O3)[C@H]21 [Lovastatin, lovastatin]
- Apo B mean percentage change [2]: −16%
- HDL-C median percentage change [2]: +5%
- LDL-C mean percentage change [2]: −22* %
- TG median percentage change [2]: 0%
- Total-C mean percentage change [2]: −14* %

SMILES: CCC(C)(C)C(=O)O[C@H]1C[C@@H](C)C=C2C=C[C@H](C)[C@H](CC[C@@H]3C[C@@H](O)CC(=O)O3)[C@H]21 [Simvastatin, simvastatin]
- Apo B mean percentage change ([3]; Simvastatin 10 mg/day): −20* %
- HDL-C median percentage change ([3]; Simvastatin 10 mg/day): +3* %
- LDL-C mean percentage change ([3]; Simvastatin 10 mg/day): −26* %
- TG median percentage change ([3]; Simvastatin 10 mg/day): −17* %
- Total-C mean percentage change ([3]; Simvastatin 10 mg/day): −19* %
- Apo B mean percentage change ([3]; Simvastatin 20 mg/day): −26* %
- HDL-C median percentage change ([3]; Simvastatin 20 mg/day): +7* %
- LDL-C mean percentage change ([3]; Simvastatin 20 mg/day): −34* %
- TG median percentage change ([3]; Simvastatin 20 mg/day): −12* %
- Total-C mean percentage change ([3]; Simvastatin 20 mg/day): −23* %
